Experimental data as given in US10596110B2, “Residence structures and related methods” (Massachusetts Institute of Technology, priority 2014, dated 2020).

Test: Stability of drugs in acidic conditions, in solution or in PCL structures (HPLC)
Assay type: physicochemical
Settings: IAW, pH=1, 37° C.
Method: Stability of drugs in the gastric environment was evaluated using HPLC and LC-MS/MS analysis. Hydrophilic drugs were dissolved in simulated gastric fluid (SGF, 0.2% (w/v) NaCl, 0.83% (v/v) HCL, pH=1) in centrifuge tubes. Hydrophobic drugs were dissolved in IAW (isopropanol 70%, acetonitrile 20%, water 10%) with pH adjusted to 1 using HCL. As a control, drugs were dissolved in the same solvents with pH adjusted to 6.0 (using IM NaOH). After vortexing for 1 min and sonication for 10 min, tubes were placed in a shaking incubator (150 rpm, 37° C.). Samples were collected at defined time points for up to two weeks and analyzed by HPLC and LC-MS/MS to quantify the stability of drugs.
Stability of drugs loaded into PCL based delivery matrices were also studied. Loading of drugs is described below in Examples 16 and 17. Drug loaded structures were kept at acidic conditions (pH=1, 37° C.) and at defined intervals, drug was extracted from the PCL matrix and analyzed by HPLC and/or LC-MS/MS. In order to extract drugs, structures were sonicated in SGF (hydrophilic drugs) or isopropanol (hydrophobic drugs) for 10 min. Fresh drug in SGF or Isopropanol was prepared immediately before analysis as controls.
Ivermectin (IVM) loaded structures, shown in FIG. 16B, were placed in SGF+RH solution (pH=1, 37° C.) for 72 h. Drug was extracted by sonicating the structure in isopropanol for 10 min.

## Ivermectin
  Stability in acidic conditions (in solution): unstable
